From paper PMC11892739, “Site-specific molecular glues for the 14-3-3/Tau pS214 protein–protein interaction via reversible covalent imine tethering” (RSC Medicinal Chemistry, 2025)

Target: T1, 14-3-3γ/Tau pS214 interaction (Homo sapiens, UniProt P61981)
T1 construct: made in house; host or cells: NiCo21 (DE3) E. coli
T1 sequence (P61981 1-247): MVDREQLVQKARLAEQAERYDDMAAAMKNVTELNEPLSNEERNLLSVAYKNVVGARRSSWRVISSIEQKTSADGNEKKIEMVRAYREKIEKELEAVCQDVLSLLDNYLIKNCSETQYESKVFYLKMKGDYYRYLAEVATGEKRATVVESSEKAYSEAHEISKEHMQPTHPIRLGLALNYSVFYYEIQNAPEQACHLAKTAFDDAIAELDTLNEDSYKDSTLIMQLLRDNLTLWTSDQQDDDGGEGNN
Assay: Fluorescence anisotropy 14-3-3γ titration with compound and monovalent Tau pS214 peptide
Assay type: binding
Conditions: for apparent cooperativity factor (app. α), 14-3-3γ/Tau pS214: 2D titrations, 14-3-3γ titrated at varied compound concentrations, saturation of the ratio
Description: FA assays in which 14-3-3γ was titrated to a constant concentration of compound (250 μM) in the presence of the distinct monovalent Tau peptide (10 nM) were performed.
The determined stabilization factors are concentration-dependent (here 250 μM of compound) and might differ based on assay design. […] The app. α-factors of these compounds for both 14-3-3/Tau complexes were determined by 14-3-3γ titrations in the presence of varied concentrations of the particular compound (Fig. 5d and e). Both compounds reached saturation for both 14-3-3γ/Tau complexes enabling accurate determination of the α-factor. The app. α-factors of aldehydes 1 and 18 were plotted for both 14-3-3γ/Tau complexes to investigate phospho-binding site selective cooperativity (Fig. 5f and h). To do so, the stabilization factors at a given compound concentration were plotted against the compound concentration, leading to the determination of the app. α-factors. […]
chromatography (HisTrap high performance cartridges, Cytiva). Typically two 5 mL columns were used for a 2 L culture in which the lysate was loaded on the column, washed with 10 CV wash buffer (50 mM Hepes, pH 8.0, 300 mM NaCl, 25 mM imidazole, 2 mM βME), and eluted with several fractions (2-4 CV) of elution buffer (50 mM Hepes, pH 8.0, 300 mM NaCl, 250 mM imidazole, 2 mM βME). Fractions containing the 14-3-3 protein were combined and dialyzed into 25 mM HEPES pH 8.0, 200 mM NaCl, 10 mM MgCl2, 2 mM βME, followed by dialysis into 25 mM HEPES, 100 mM NaCl, 10 mM MgCl2, 500 μM TCEP (adjusted to pH 8.0). Dialyzed protein was concentrated to ∼40 mg/mL, analyzed by Q -Tof LC/MS, and aliquots were flash -frozen for storage at −80 °C. […]
0.1% (v/v) Tween20, 0.1% (w/v) BSA). Dilution series were made in polystyrene low -volume 384 -well plates (Corning #4514, Black Round Bottom). Measurements were performed directly after plate preparation, using a Tecan SPARK plate reader at room temperature ( λex: 485±20 nm; λem: 535±25 nm; mirror: automatic; flashes: 30; settle time: 1 ms; gain: optimal; Z -position: calculated from well). Wells containing only fluorescein labelled peptide were used to set as G -factor calibrated from these wells. All data were analyzed using GraphPad Prism (10.0.1) and fitted with a four -parameter logistic model (4PL) to determine binding affinities (dissociation constant, KD). All data shown is background corrected for the signal without 14 -3-3ζ and the mean and standard deviation of technical duplicate is plotted, assay performed in a scientific duplicate for hit compounds.
Fluorescence Anisotropy – 14-3-3 titrations in the presence of compound To characterize the affinity of the Tau peptides for 14-3-3 in the presence of compound, 14-3-3ζ or γ was titrated in a 2-fold dilution series starting at 400 (for the 14-3-3ζ titrations to Tau pS2) or 800 (for the 14-3-3γ titrations to Tau pS214 or pS324) µM. 14-3-3 was added to 10 nM of fluorescein-labeled peptide (Tau pS2, Tau pS214 or Tau pS324) in the presence of 250 µM compound (1% DMSO). The assays were performed in a similar way as described above. Data shown is the average and standard deviation of a technical duplicate, top plateau corrected where needed, assay performed in a scientific duplicate. […]
The peptide screen was performed in a similar way as the 14-3-3ζ titration in the precence of compound.
14-3-3ζ was titrated in a 2-fold dilution series (starting at 400 µM 14-3-3ζ) to 100 nM of fluorescein-labeled peptides and 250 µM compound 18 (1% DMSO) in FA buffer (10 mM HEPES pH 7.4, 150 mM […]
Data shown is the average of a scientific triplicate. […]
DSF was performed using 40 µl samples containing 2.5 µM 14 -3-3ζ, 25 µM Tau peptide (Tau pS2, Tau pS214 or Tau pS324), […] (1% DMSO) and 5x ProteoOrange (Lumiprobe, 5000x stock in DMSO) in 10 mM HEPES, 150 mM NaCl, 50 µM TCEP (pH 7.4). The samples were heated from 35 °C to 79°C at a rate of 0.3 °C per 15 s in a C FX96 Touch Real-Time PCR Detection System (Bio -Rad). Fluorescence […]

SF250μM for the 14-3-3γ/Tau pS214 complex (250 μM compound, 10 nM Tau pS214 peptide, internal DMSO reference) | apparent cooperativity factor (app. α), 14-3-3γ/Tau pS214 | Compound
8.6 | 10.2 | CCc1ccc(-c2nccn2-c2ccc(C=O)c(Br)c2)cc1 [Compound 18]
– | 3.8 | O=Cc1ccc(-n2ccnc2-c2ccccc2)cc1Br [Compound 1]
